Source: patent publication US20030134832A1, “Novel tibolone formulations” (priority 2001, published 2003)

Structure (SMILES)	pH of 1% w/v aqueous solution
O=C([O-])O.[Na+] [Sodium Bicarbonate, sodium bicarbonate]	pH 8.2
O=C([O-])CC(O)(CC(=O)[O-])C(=O)[O-].[Na+].[Na+].[Na+] [Sodium Citrate, sodium citrate]	pH 8.75
